Patent US20190192458A1, “THERAPEUTIC/PROPHYLACTIC AGENT FOR GRAFT-VERSUS-HOST DISEASE, FIBROCYTE INVASION INHIBITOR, AND INHIBITOR AGAINST TEAR REDUCTION AND REDUCTION IN GOBLET CELLS” (KEIO UNIVERSITY, priority 2016, published 2019)

What was measured:
[1] = system: MCP-1, TNF-α, and IFN-γ in blood sera; test: ELISA of inflammation markers in blood sera; assay type: in vivo, mouse; conditions: ELISA 28 days after bone marrow transplantation; PBA-treated vs vehicle-treated mice, n=4, P<0.05
Description: (§1) Bone marrow transplantation was performed as described in the above section “Bone marrow transplantation,” and the resulting allogeneic bone marrow transplantation recipient mice were divided into two groups. One group was treated with intraperitoneal injection of PBA (10 mg/kg) (Aldrich) while the other was treated with intraperitoneal injection of a solvent vehicle⋅phosphate buffered saline (PBS) (pH 7.4). The allogeneic bone marrow transplantation recipients received once-daily administration of PBA or the solvent vehicle from Day 10 to Day 27 after bone marrow transplantation. They were sacrificed on Day 28 after bone marrow transplantation.
Blood samples were withdrawn from PBA-treated mice and vehicle-treated mice, and centrifuged at 4000 rpm for 10 minutes. The levels of MCP-1, tumor necrosis factor-α (TNF-α), and interferon-γ (IFN-γ) in the resulting blood sera were measured using ELISA kits (Becton Dickinson). These assays were performed according to the protocol recommended by manufacturer Becton Dickinson.

[2] = system: mouse splenic macrophages; test: Cultured splenic macrophages from PBA-treated and vehicle-treated mice (immunofluorescence, immunoblot, qPCR); assay type: cell-based
Description: as §1
Mouse splenic macrophages were cultured according to the Alatery and Besta method (Alatery A, Basta S, An efficient culture method for generating large quantities of mature mouse splenic macrophages. J Immunol Methods, 2008; 338: 47-57). Splenic cells suspended in RPMI containing 5% FBS were plated on a culture dish, and allowed to stand at 37° C. overnight. Subsequently, floating cells were removed. The desired cells adhering on the dish were cultured for 7 days in RPMI containing recombinant mouse M-CSF (5 ng/mL) (Peprotech Inc.), 5% of FBS, and 5% of the antibiotic. Induced macrophages were then detached from the culture dish by using accutase (Thermo Fisher Scientific), and used for experiments.
The induced macrophages were then transferred to an 8-well chamber slide (Fibronectin Culture Slide; Corning), and fixed with 10% neutral buffered formalin. Subsequently, they were blocked with methanol containing 0.3% hydrogen peroxide for 30 minutes at room temperature, and incubated with primary antibodies CD68 (AbD Serotec) and CHOP (Santa Cruz) overnight at 4° C. Then, the sections were treated with goat anti-mouse IgG (H+L) secondary antibody conjugated with Alexa Fluor 568 (Molecular Probes) and 4′,6-diamidino-2-phenylindole (DAPI) (Life Technologies) at room temperature for 45 minutes, and then mounted with an anti-fading mounting medium (Dako). Fluorescence images were captured under an LSM confocal microscope (Carl Zeiss).
The total RNA was extracted from the exorbital lacrimal gland, the proximal portion of the small intestine, the dorsal skin, the liver, the cultured fibroblasts, and the cultured macrophages using a miRNeasy mini kit (Qiagen), and the corresponding complementary DNAs were synthesized using a Rever Tra Ace qPCR RT kit (Toyobo Co., Ltd.). Primers used for analyzing the mRNA expression of the following genes with the TaqMan real-time polymerase chain reaction (PCR) were purchased from Applied Biosystems: housekeeping gene […] (GAPDH), glucose-regulated protein 78 (GRP78), Interleukin-1β (IL-1β), IL-6, IL-10, macrophage chemoattractant protein-1 (MCP-1), and transcription growth factor-β (TGF). A Step One Plus system (Applied Biosystems) was used to perform quantitative real time PCR, and the resulting data was analyzed by the 2^−ΔΔCT method. GAPDH was used as an internal standard for measuring the expression of mRNA.
Tissues of interest were each placed into an Eppendorf tube, and a pre-cooled RIPA buffer solution was then added to the tube. Subsequently, the tissues were each homogenized with an electric homogenizer. Samples were each allowed to stand on ice for 1 hour, and then centrifuged at 15000 rpm for 5 minutes at 4° C. Then, the supernatants were each collected in a fresh tube on ice, and used as a cell lysate. The cell lysates each received the same amount of a 5×Laemmli buffer solution, and each was heated at 100° C. for 5 minutes to denature proteins.
An aliquot of each sample having the same amount of proteins was loaded into a well of an SDS-PAGE gel, and then […]. Proteins were transferred from the gel to a membrane at 15 V for 20 minutes. The membrane was blocked at room temperature for 1 hour with 5% skim milk or 5% BSA (bovine serum albumin) in 1×TBST (a mixture of Tris-buffered saline and Tween 20). […]

[3] = splenic macrophages from PBA-treated vs vehicle-treated mouse, immunoblot, n=4
[4] = splenic macrophages, qPCR, n=4 to 5, PBA-treated vs vehicle-treated, FIG. 7E

O=C(O)CCCc1ccccc1 [PBA, 4-phenyl-n-butyric acid]
protein level of IFN-γ in blood sera [1]: lower protein levels
protein level of MCP-1 in blood sera [1]: lower protein levels
protein level of TNF-α in blood sera [1]: lower protein levels
CHOP expression in cultured splenic macrophages (immunofluorescence) ([2]; splenic macrophages from PBA-treated vs vehicle-treated mouse, FIG. 7B): vehicle-treated splenic macrophages express CHOP in contrast with PBA-treated splenic macrophages
CHOP in splenic macrophages (immunoblot) [2, 3]: substantially inhibited
GRP78 in splenic macrophages [2, 3]: substantially inhibited
phosphorylated IRE1α in splenic macrophages [2, 3]: substantially inhibited
phosphorylated PERK in splenic macrophages [2, 3]: substantially inhibited
phosphorylated eIF2α in splenic macrophages [2, 3]: substantially inhibited
gene expression of M1 macrophage marker IL-1β [2, 4]: higher gene expressions
gene expression of M1 macrophage marker IL-6 [2, 4]: higher gene expressions
mRNA expression of M2 macrophage marker IL-10 [2, 4]: increased in the vehicle-treated macrophages as compared with the PBA-treated macrophages
mRNA expression of M2 macrophage marker TGF-β [2, 4]: increased in the vehicle-treated macrophages as compared with the PBA-treated macrophages
